Assay results from patent US7348317B2, “Aqueous compositions containing metronidazole” (Dow Pharmaceutical Sciences, priority 2001, dated 2008).

Key:
Assay type in all cases: physicochemical
[1] = Physical stability of BCD solutions in gel vehicle stored at 5° C.; settings: for Results after storage at 5° C.: monitored weekly for two weeks
Experimental: Different solutions according to Table 1 were made with varying concentrations of beta-cyclodextrin (BCD). The solutions of BCD were maintained at 5° C. monitored weekly for two weeks for signs of crystal or precipitate formation.

[2] = Physical stability of 1.0% metronidazole gel solutions with BCD and niacinamide at 5° C.
[3] = as above; settings: Metronidazole 1.0 % w/w
Experimental: Various gel solutions of Table 1 were prepared with a concentration of 1.0% metronidazole and containing either 0.5% or 1.0% BCD and differing concentrations of niacinamide. The gels were maintained at 5° C. for one week to observe for precipitate or crystal formation.

[4] = Physical stability of 1.0% metronidazole gel solutions with niacin at 5° C.; settings: MTZ 1.0 % w/w, pH 5.0+/−0.15, gel
Experimental: The pH was adjusted to 5.0+/−0.15 with trolamine. The solutions were maintained at 5° C. for one week to observe evidence of precipitation or crystal formation.

[5] = Physical stability of 1% metronidazole solutions with 0.5% niacin and varying BCD at 5° C.; settings: for Results, 5° C., 1 week: MTZ 1.0 % w/w, niacin 0.5 % w/w, pH 5.0+/−0.15
Experimental: The solutions were maintained at 5° C. for one week to observe for crystal or precipitate formation.

[6] = Physical stability / stable solubility of metronidazole in gel vehicle containing 0.5% BCD at 5° C.; settings: for Result at 5° C., 1 week: BCD 0.5 % w/w, gel vehicle
Experimental: Different concentrations of metronidazole were prepared with the gel vehicle of Example 1 containing 0.5% BCD. The metronidazole (MTZ)/BCD solutions were maintained at 5° C. for one week.

[7] = BCD at its maximum soluble aqueous concentration (0.5%), 5° C.

OC[C@H]1O[C@@H]2O[C@H]3[C@H](O)[C@@H](O)[C@@H](O[C@H]4[C@H](O)[C@@H](O)[C@@H](O[C@H]5[C@H](O)[C@@H](O)[C@@H](O[C@H]6[C@H](O)[C@@H](O)[C@@H](O[C@H]7[C@H](O)[C@@H](O)[C@@H](O[C@H]8[C@H](O)[C@@H](O)[C@@H](O[C@H]1[C@H](O)[C@H]2O)O[C@@H]8CO)O[C@@H]7CO)O[C@@H]6CO)O[C@@H]5CO)O[C@@H]4CO)O[C@@H]3CO [BCD, beta-cyclodextrin]
saturated BCD solubility in the aqueous solutions ([1]; 5° C., aqueous solution such as gel): about 0.5% | Results after storage at 5° C. ([1]; BCD 0.5 % w/w in gel vehicle of Table 1): Clear after 2 weeks | Results after storage at 5° C. ([1]; BCD 0.6 % w/w in gel vehicle of Table 1): Crystals formed after 2 weeks | Results after storage at 5° C. ([1]; BCD 0.7 % w/w in gel vehicle of Table 1): Crystals at one week | Results after storage at 5° C. ([1]; BCD 0.9 % w/w in gel vehicle of Table 1): Crystals at one week | Results after storage at 5° C. ([1]; BCD 1.0 % w/w in gel vehicle of Table 1): Crystals at one week | Results after storage at 5° C. ([1]; BCD 1.2 % w/w in gel vehicle of Table 1): Crystals at one week | Results after storage at 5° C. ([1]; BCD 1.4 % w/w in gel vehicle of Table 1): Crystals at one week | Results after storage at 5° C. ([1]; BCD 1.5 % w/w in gel vehicle of Table 1): Crystals at one week

Cc1ncc([N+](=O)[O-])n1CCO [MTZ, 1-(2-hydroxyethyl)-2-methyl-5-nitroimidazole]
MTZ aqueous solubility with niacinamide [2]: 1% | increase of MTZ aqueous solubility by niacinamide ([2]; 3% concentration of niacinamide): 0.3% | solubility of MTZ above its unaided solubility with BCD and niacinamide combined ([2]; BCD at amount expected to yield 0.1% increase plus niacinamide at one third of the amount that raises solubility by 0.3%): 0.3% | Results at 5° C., 1 week ([3]; BCD 0.5 % w/w, niacinamide 0.5 % w/w): Crystals formed | Results at 5° C., 1 week ([3]; BCD 0.5 % w/w, niacinamide 1.0 % w/w): Clear | Results at 5° C., 1 week ([3]; BCD 0.5 % w/w, niacinamide 2.0 % w/w): Clear | Results at 5° C., 1 week ([3]; BCD 1.0 % w/w, niacinamide 0.5 % w/w): Precipitate formed | Results at 5° C., 1 week ([3]; BCD 1.0 % w/w, niacinamide 1.0 % w/w): Clear | Results at 5° C., 1 week ([3]; BCD 1.0 % w/w, niacinamide 2.0 % w/w): Clear | Results, 5° C., 1 week ([4]; niacin 0.10 % w/w): Crystals formed | Results, 5° C., 1 week ([4]; niacin 0.15 % w/w): Crystals formed | Results, 5° C., 1 week ([4]; niacin 0.25 % w/w): Crystals formed | Results, 5° C., 1 week ([4]; niacin 0.5 % w/w, seven out of eight samples showed crystal formation): Clear/Crystals formed* | Results, 5° C., 1 week ([4]; niacin 1.0 % w/w): Clear | Results, 5° C., 1 week ([4]; niacin 1.2 % w/w): Clear | Results, 5° C., 1 week ([4]; niacin 1.5 % w/w): Clear | Results, 5° C., 1 week ([4]; niacin 1.8 % w/w): Clear | Results, 5° C., 1 week ([4]; niacin 2.0 % w/w): Clear | Results, 5° C., 1 week ([4]; niacin […] w/w): Clear | solubility of MTZ with niacin and BCD combined ([5]; 0.5% niacin combined with 0.5% BCD, pH of about 5): 1% | Results, 5° C., 1 week ([5]; BCD 0.2 % w/w): Crystals formed | Results, 5° C., 1 week ([5]; BCD 0.3 % w/w): Crystals formed | Results, 5° C., 1 week ([5]; BCD 0.5 % w/w): Clear | increase of stable solubility of MTZ by BCD [6, 7]: 0.1% | stable solubility of MTZ in aqueous solution with BCD [6, 7]: 0.8% | Result at 5° C., 1 week ([6]; MTZ 0.7 % w/w): Clear | Result at 5° C., 1 week ([6]; MTZ 0.8 % w/w): Clear | Result at 5° C., 1 week ([6]; MTZ 0.9 % w/w): Crystals formed | stable solubility of MTZ in aqueous solution, unaided ([6]; aqueous solution such as a gel, 5° C., without solubility enhancer): 0.7% | stable solubility of metronidazole in the gel vehicle ([6]; gel vehicle containing 0.5% BCD, 5° C.): about 0.8 % w/w

NC(=O)c1cccnc1 [niacinamide]
concentration of niacinamide required to obtain a stable aqueous gel solution of 1.0% metronidazole ([2]; niacinamide alone, no BCD): about 3%
